Data from ChEMBL document CHEMBL1201862, “PubChem BioAssay data set” (2004).
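Growth conditions: 96-well plates. Treatment: test compound, 48 hours, 5 concentrations. Analysis: linear interpolation between bracketing concentrations; unreached endpoints set to highest concentration. At the GI50, growth is halved.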 The source made the active and inactive calls. Cut-off read from the data, not from the text of the source: active = GI50 up to about 1.1 µM and inactive = higher.

Legend:
Assay in all cases: NCI-60 cell line screen, 48 h
M14 = tested on: M14
SNB-75 = tested on: SNB-75
UACC-257 = tested on: UACC-257
A549 = tested on: A549
HCT-15 = tested on: HCT-15
CAKI-1 = tested on: CAKI-1
HCC 2998 = tested on: HCC 2998
OVCAR-5 = tested on: OVCAR-5
A498 = tested on: A498
SK-OV-3 = tested on: SK-OV-3
OVCAR-4 = tested on: OVCAR-4
SK-MEL-2 = tested on: SK-MEL-2
EKVX = tested on: EKVX
786-0 = tested on: 786-0
HL-60 = tested on: HL-60
U-251 = tested on: U-251
PC-3 = tested on: PC-3
DU-145 = tested on: DU-145
MDA-MB-435 = tested on: MDA-MB-435

SMILES | GI50 (M14) | GI50 (SNB-75) | GI50 (UACC-257) | GI50 (A549) | GI50 (HCT-15) [µM] | GI50 (CAKI-1) | GI50 (HCC 2998) | GI50 (OVCAR-5) | GI50 (A498) | GI50 (SK-OV-3) | GI50 (OVCAR-4) | GI50 (SK-MEL-2) | GI50 (EKVX) | GI50 (786-0) | GI50 (HL-60) | GI50 (U-251) | GI50 (PC-3) | GI50 (DU-145) | GI50 (MDA-MB-435)
O=C(N/C(=C/c1cccc([N+](=O)[O-])c1)c1nc2cc(Cl)ccc2[nH]1)c1ccccc1 | 20.7 µM (inactive) | 19.2 µM (inactive) | 43.8 µM (inactive) | 14.2 µM (inactive) | 6.01 | 11.1 µM (inactive) | 23.1 µM (inactive) | 27.8 µM (inactive) | 13 µM (inactive) | 17.3 µM (inactive) | 17.4 µM (inactive) | 16.1 µM (inactive) | 3.14 µM (inactive) | 15.7 µM (inactive) | 1.99 µM (inactive) | 9.73 µM (inactive) |  |  | 
CCCCCCN(CCCCCC)C1=CC(=O)C(=O)c2ccccc21 | 18.3 µM (inactive) | 16.8 µM (inactive) | 15.2 µM (inactive) | 17.1 µM (inactive) | 17.7 | 15 µM (inactive) | 20.9 µM (inactive) | 19.1 µM (inactive) | 26.5 µM (inactive) | 17.7 µM (inactive) | 15.4 µM (inactive) | 18.7 µM (inactive) | 14.6 µM (inactive) | 16.7 µM (inactive) | 10.1 µM (inactive) | 15.8 µM (inactive) |  |  | 
CNC(=O)N(CCC#N)CCCN(C(=O)NC)c1ccccc1 | > 100 µM (inactive) | 72.6 µM (inactive) | > 100 µM (inactive) | > 100 µM (inactive) | > 100 | > 100 µM (inactive) | > 100 µM (inactive) | > 100 µM (inactive) |  | > 100 µM (inactive) | > 100 µM (inactive) | > 100 µM (inactive) | > 100 µM (inactive) | > 100 µM (inactive) | > 100 µM (inactive) | > 100 µM (inactive) | > 100 µM (inactive) | > 100 µM (inactive) | > 100 µM (inactive)
COC(=O)C1=Cc2cn(S(=O)(=O)c3ccc(C)cc3)c3cccc(c23)C(C=C(C)C)N1C(C)=O (stereo not drawn) | 30.2 µM (inactive) | 98.6 µM (inactive) | 11.3 µM (inactive) | 13.6 µM (inactive) |  | 12.6 µM (inactive) | > 100 µM (inactive) | > 100 µM (inactive) | 68.9 µM (inactive) | > 100 µM (inactive) | 8.67 µM (inactive) | 4.68 µM (inactive) | > 100 µM (inactive) | > 100 µM (inactive) | 5.56 µM (inactive) | 45.6 µM (inactive) |  |  | 
CC(C)(C)OC(=O)NCCc1cccc2c1oc1c(CCC(=O)O)cccc12 | > 100 µM (inactive) | 95.9 µM (inactive) | > 100 µM (inactive) | > 100 µM (inactive) | > 100 | > 100 µM (inactive) | > 100 µM (inactive) | > 100 µM (inactive) | > 100 µM (inactive) | > 100 µM (inactive) | > 100 µM (inactive) | > 100 µM (inactive) |  | > 100 µM (inactive) | > 100 µM (inactive) | > 100 µM (inactive) |  |  | 
C=C1CC2CC[C@@]34C[C@@H]5O[C@@H]6C(O[C@H]7CC[C@H](CC(=O)OC8[C@@H](C)C9OC%10C[C@]%11(C[C@@H]%12O[C@@]%13(C[C@@H](C)[C@@H]%12O%11)C[C@H](C)[C@@H]%11OC%12CC(C(O)CO)OC%12C[C@@H]%11O%13)OC%10CC9O[C@H]8C[C@H]8O[C@@H](CC[C@@H]1O2)C[C@@H](C)C8=C)O[C@@H]7[C@@H]6O3)C5O4 (stereo partly drawn) | 0.00108 µM (active) | 0.000434 µM (active) | 0.000262 µM (active) | 0.00168 µM (active) | 0.000476 | 0.000484 µM (active) | 0.00225 µM (active) | 0.00904 µM (active) | 0.00197 µM (active) | 0.00166 µM (active) | 0.00471 µM (active) | 0.00125 µM (active) | 0.00405 µM (active) | 0.00211 µM (active) | 0.000321 µM (active) | 0.00103 µM (active) |  |  | 
Cc1[nH]c(O)nc1C(=O)c1ccc(-n2ccnc2)cc1 | > 100 µM (inactive) | > 100 µM (inactive) | > 100 µM (inactive) | > 100 µM (inactive) | > 100 | > 100 µM (inactive) | > 100 µM (inactive) | > 100 µM (inactive) | > 100 µM (inactive) | > 100 µM (inactive) | > 100 µM (inactive) | > 100 µM (inactive) |  | > 100 µM (inactive) | > 100 µM (inactive) | > 100 µM (inactive) |  |  | 
CN(C)c1cccc(-c2cc(O)c3cc4c(cc3n2)OCO4)c1 | 0.139 µM (active) | 0.054 µM (active) | 0.916 µM (active) | 0.343 µM (active) | 0.285 | > 100 µM (inactive) | 0.193 µM (active) | 0.274 µM (active) | 0.137 µM (active) | 0.123 µM (active) | 0.705 µM (active) | 0.221 µM (active) | 25.6 µM (inactive) | 0.262 µM (active) | 0.112 µM (active) | 0.247 µM (active) |  |  | 
O=C1c2ccccc2C(=O)c2c(O)ccc(O)c21 [QUINIZARIN] | > 100 µM (inactive) | > 100 µM (inactive) | > 100 µM (inactive) | 81.3 µM (inactive) | > 100 | > 100 µM (inactive) | 81.1 µM (inactive) | > 100 µM (inactive) | > 100 µM (inactive) | > 100 µM (inactive) | > 100 µM (inactive) | 79.8 µM (inactive) | 58.7 µM (inactive) | > 100 µM (inactive) | > 100 µM (inactive) | > 100 µM (inactive) |  |  | 
